{"source": "patent US20140130208A1", "about": "“METHODS AND MEANS TO PRODUCE ABIOTIC STRESS TOLERANT PLANTS” (VIB VZW, priority 2011, published 2014)", "key": {"[1]": {"tested_on": "Arabidopsis thaliana third true leaf", "assay": "Ploidy analysis of leaf 3 by flow cytometry (endoreduplication onset)", "type": "in vivo", "conditions": "transfer at 9 DAS to 25 mM mannitol or 5 μM ACC", "procedure": "Arabidopsis seedlings were germinated and grown on nylon meshes overlaying control medium until 9 days after stratification (DAS), when the third true leaf is fully proliferating (Skirycz et al., 2010), and subsequently transferred to control or mannitol-containing medium (FIGS. 1A to 10). Kinematic analysis was performed, whereby leaves were harvested daily throughout development of leaf 3 (9-20 DAS) and based on drawings of the abaxial epidermis cell number, cell area, number of guard cells and cell division and cell expansion rates were calculated (De Veylder et al., 2001). […] Leaf and plant morphology were not altered by mannitol (FIG. 2C). Cell expansion was also affected by stress and the reduced final leaf area was a combination of fewer and smaller cells (FIG. 2D). The stomatal index, which represents the number of stomata as a fraction of the total number of cells, was reduced as well (FIG. 2E). To learn more about the mechanisms underlying the rapid reduction of cell division upon stress onset, we harvested leaf samples daily after transfer. […]\nFor flow cytometry analysis, nuclei were extracted by chopping 4-32 leaves with a razor blade in 1 ml of 45 mM MgCl2, 30 mM sodium citrate, 20 mM 3-(N-morpholino)propanesulfonic acid, pH 7, and 1% Triton X-100 (Galbraith et al., 1983). […] The nuclei were analyzed with a CyFlow flow cytometer with the FloMax Software (Partec)."}, "CDKA": {"tested_on": "CDKA", "assay": "CDKA activity assay on protein extracted from proliferating third leaves", "type": "in vivo, Arabidopsis thaliana", "conditions": "wild type; 10 and 24 h after transfer to 25 mM mannitol or 5 μM ACC", "procedure": "(§1) At 9 DAS, when the third leaf is fully proliferating, seedlings were transferred to plates containing control medium or medium supplemented with 25 mM mannitol (Sigma-Aldrich) or 5 μM ACC (Sigma-Aldrich) by gently lifting the nylon mesh with forceps. For the CDKA activity assay the transfer was done at 11 DAS; at this stage, the third leaf is still dividing and can be quickly harvested without the need for RNAlater solution (see below) that would inhibit CDKA activity. All transfers were performed 2-3 h into the day.\nTotal soluble protein was extracted from 50 leaves by adding extraction buffer (Van Leene et al., 2007) to ground samples, followed by two freeze-thaw steps and two centrifugation steps (20,817 g, 10 min, 4° C.), whereby the supernatant was collected each time. Equal amounts of total protein were incubated with p9^CKS1Hs-sepharose beads (De Veylder et al., 1997) and kinase assays were performed as described (De Veylder et al., 1997) with histone H1 as CDK substrate. To correct for the amount of CDKA protein purified by p9^CKS1Hs-sepharose beads, an aliquot of each sample was used for protein gel blot analysis with primary rabbit anti-PSTAIRE antibodies (Santa Cruz) (diluted 1:5000) and a secondary horseradish peroxidase-conjugated donkey anti-rabbit antibodies (GE-Healthcare) (diluted 1:10,000). Proteins were detected by chemiluminescence (Western Lightning Plus ECL, PerkinElmer Life Sciences). CDK activity and CDKA amount were quantified with ImageJ v1.41o. Control samples were arbitrarily set at 100%."}, "[2]": {"tested_on": "Arabidopsis thaliana third true leaf", "assay": "Growth (kinematic) analysis of the third leaf after transfer of seedlings to mannitol- or ACC-containing medium", "type": "in vivo", "conditions": "for reduction in leaf area: 72 h after transfer to mannitol (12 DAS)", "procedure": "Arabidopsis seedlings were germinated and grown on nylon meshes overlaying control medium until 9 days after stratification (DAS), when the third true leaf is fully proliferating (Skirycz et al., 2010), and subsequently transferred to control or mannitol-containing medium (FIGS. 1A to 10). Kinematic analysis was performed, whereby leaves were harvested daily throughout development of leaf 3 (9-20 DAS) and based on drawings of the abaxial epidermis cell number, cell area, number of guard cells and cell division and cell expansion rates were calculated (De Veylder et al., 2001). […] Leaf and plant morphology were not altered by mannitol (FIG. 2C). Cell expansion was also affected by stress and the reduced final leaf area was a combination of fewer and smaller cells (FIG. 2D). The stomatal index, which represents the number of stomata as a fraction of the total number of cells, was reduced as well (FIG. 2E). To learn more about the mechanisms underlying the rapid reduction of cell division upon stress onset, we harvested leaf samples daily after transfer. As a measure of cellular differentiation, the ploidy distribution was examined by flow cytometry. […] In stressed leaves, 4C nuclei started to accumulate approximately one day earlier than in controls at the expense of 2C nuclei (FIG. 3A). Analogously, the number of 8C nuclei increased sharply at 14 DAS in stressed leaves, but only at 15 DAS in control samples (FIG. 3A). Again, transfer itself had no effect on ploidy levels (not shown). […] This observation was further investigated with a CYCB1;1:Dbox-GUS reporter line. Staining for CYCB1;1:Dbox-GUS activity visualizes cells at the G2-to-M transition, reflecting mitotic activity (Colón-Carmona et al., 1999). The most apparent differences were observed 48 h after transfer. […] While the relative size of the cell proliferation zone was similar in mannitol-treated leaves, the remaining proliferating cells were found in a dispersed pattern throughout this zone. […] Within a few days after transfer, division rates adapted to the new conditions and compensation effects were observed.\nSeedlings of Arabidopsis thaliana (L.) Heyhn. ecotype Columbia-0 (Col-0) were grown in vitro in half-strength Murashige and Skoog medium (Murashige and Skoog, 1962), supplemented with 1% sucrose under a 16-h day (110 μmol m^−2 s^−1) and 8-h night regime. Plates were overlaid with nylon mesh (Prosep, Zaventem, Belgium) of 20 μm pore size to avoid that roots grew into the medium. Depending on the experiment, 32 or 64 seeds were equally distributed on a 150-mm diameter plate. Mutant plants were grown together with their wild-type controls on the same plate.\nas §1\nGrowth analysis was performed on the third true leaf harvested at different time points after transfer. After clearing with 70% ethanol, leaves were mounted in lactic acid on microscopic slides. For each experiment, 8-12 leaves were photographed with a binocular, and epidermal cells (40-300) were drawn for four representative leaves with a DMLB microscope (Leica) fitted with a drawing tubus and a differential interference contrast objective. Photographs of leaves and drawings were used to measure leaf and cell area, respectively, with ImageJ v1.41o (NIH; http://rsb.info.nih.gov/ij/), from which the cell numbers were calculated. The stomatal index was defined as the percentage of stomata per all cells. […]"}, "[3]": {"conditions": "transfer at 9 DAS to 25 mM mannitol or 5 μM ACC, leaf 3"}}}
{"compound": "OC[C@@H](O)[C@@H](O)[C@H](O)[C@H](O)CO", "note": "[mannitol]", "values": [{"measurement": "endoreduplication onset", "setting": "[1]", "result": "faster onset of endoreduplication"}, {"measurement": "CDKA activity", "setting": "CDKA", "result": "decreased as early as 10 h after stress onset and remained low at 24 h"}, {"measurement": "leaf and plant morphology", "setting": "[2]; 25 mM mannitol", "result": "not altered"}, {"measurement": "reduction of leaf area", "setting": "[2]; 25 mM mannitol in growth medium", "result": "approximately 50%"}, {"measurement": "reduction in leaf area", "setting": "[2]; ein5.1 mutant", "result": "~20", "unit": "%"}, {"measurement": "reduction in leaf area", "setting": "[2]; etr1.3 mutant", "result": "~30", "unit": "%"}, {"measurement": "cell proliferation rates", "setting": "[2]; [3]", "result": "reduced proliferation rates"}, {"measurement": "stomatal index", "setting": "[2]; [3]", "result": "reduced"}, {"measurement": "reduction in leaf area", "setting": "[2]; wild type", "result": "~45", "unit": "%"}]}
